Source: PMC8512764, “New 4-Aminoproline-Based Small Molecule Cyclopeptidomimetics as Potential Modulators of α4β1 Integrin” (Molecules, 2021)
Entries after “also recorded” stand apart in the source; their conditions may differ. *1 amine or outer side, *2 acyl side, *3 side chain or, on linkers, in order; H or OH if unused. Where a SMILES comes first, the peptide text is derived from it. Bridges are numbered along the chain shown (N, C = ends). [ ]: non-standard residue; d: D form. The star is where a group is joined. ξ: configuration not given here. ξPro(4ξ-NH2) = O=C(C1CC(N[*:3])CN1[*:1])[*:2]; X1 = O=C(Cc1ccc(N[*:1])cc1)[*:2]; NH(2-Me-phenyl) = Cc1ccccc1N*; CO = O=C([*:1])[*:2]

What was measured:
[1] = system: Jurkat cells; assay: Jurkat cell adhesion to wells coated with compound 16 (absence of VCAM-1); format: cell-based
Procedure: In a second set of experiments, the ability of compound 16 to increase cell adhesion was tested in the absence of VCAM-1. Wells were coated by passive adsorption with compound 16 or BSA (both at 10 µg/mL) as a negative control and Jurkat cell adhesion was measured (Figure 8b).
(§1) The number of adherent cells was determined as described above.

[2] = system: α4β1/VCAM-1 interaction; set-up: method as in PMID 10072689; settings: Jurkat cell adhesion assay; read-out: IC50, inhibition of α4β1/VCAM-1 interaction; cited from earlier work
[3] = system: α4β7 integrin; set-up: method as in PMID 10072689; settings: cited from earlier work
[4] = system: allergic bronchoconstriction; set-up: method as in PMID 10072689; settings: administered as an aerosol; cited from earlier work
[5] = set-up: method as in PMID 31338363, PMID 26101577; settings: cited from earlier work
[6] = molecular target: T1, α4β1 integrin (Homo sapiens, UniProt P05556+P13612); settings: cited from earlier work
T1 construct: Jurkat cells endogenously express α4β1 integrin; host or cells: Jurkat E6.1 cells
T1 sequence (P13612 34-1032): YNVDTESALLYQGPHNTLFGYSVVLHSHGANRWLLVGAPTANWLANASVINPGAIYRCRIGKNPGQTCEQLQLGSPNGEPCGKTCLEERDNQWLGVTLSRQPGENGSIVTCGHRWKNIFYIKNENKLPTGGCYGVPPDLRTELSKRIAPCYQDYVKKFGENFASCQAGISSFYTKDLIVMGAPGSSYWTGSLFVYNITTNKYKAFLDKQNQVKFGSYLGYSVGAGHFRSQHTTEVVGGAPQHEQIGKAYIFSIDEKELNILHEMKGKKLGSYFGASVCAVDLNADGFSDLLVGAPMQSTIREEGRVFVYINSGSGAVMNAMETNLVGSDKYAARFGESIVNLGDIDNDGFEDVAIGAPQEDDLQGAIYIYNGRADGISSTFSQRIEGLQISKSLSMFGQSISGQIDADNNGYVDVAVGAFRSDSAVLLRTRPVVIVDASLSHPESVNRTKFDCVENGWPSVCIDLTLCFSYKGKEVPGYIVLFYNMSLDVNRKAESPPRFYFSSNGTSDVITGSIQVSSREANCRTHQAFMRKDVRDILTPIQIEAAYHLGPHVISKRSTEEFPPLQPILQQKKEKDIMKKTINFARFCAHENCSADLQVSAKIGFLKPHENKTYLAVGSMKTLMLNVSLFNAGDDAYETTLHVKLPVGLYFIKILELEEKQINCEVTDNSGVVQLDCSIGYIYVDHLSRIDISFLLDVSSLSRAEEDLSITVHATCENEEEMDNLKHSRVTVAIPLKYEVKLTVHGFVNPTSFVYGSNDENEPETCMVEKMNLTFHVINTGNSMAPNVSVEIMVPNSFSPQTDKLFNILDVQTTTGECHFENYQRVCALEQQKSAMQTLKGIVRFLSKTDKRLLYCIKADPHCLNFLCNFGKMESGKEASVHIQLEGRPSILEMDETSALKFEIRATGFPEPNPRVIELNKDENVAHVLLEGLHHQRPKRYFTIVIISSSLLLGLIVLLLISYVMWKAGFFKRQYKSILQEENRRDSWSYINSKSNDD
T1 sequence (P05556 21-798): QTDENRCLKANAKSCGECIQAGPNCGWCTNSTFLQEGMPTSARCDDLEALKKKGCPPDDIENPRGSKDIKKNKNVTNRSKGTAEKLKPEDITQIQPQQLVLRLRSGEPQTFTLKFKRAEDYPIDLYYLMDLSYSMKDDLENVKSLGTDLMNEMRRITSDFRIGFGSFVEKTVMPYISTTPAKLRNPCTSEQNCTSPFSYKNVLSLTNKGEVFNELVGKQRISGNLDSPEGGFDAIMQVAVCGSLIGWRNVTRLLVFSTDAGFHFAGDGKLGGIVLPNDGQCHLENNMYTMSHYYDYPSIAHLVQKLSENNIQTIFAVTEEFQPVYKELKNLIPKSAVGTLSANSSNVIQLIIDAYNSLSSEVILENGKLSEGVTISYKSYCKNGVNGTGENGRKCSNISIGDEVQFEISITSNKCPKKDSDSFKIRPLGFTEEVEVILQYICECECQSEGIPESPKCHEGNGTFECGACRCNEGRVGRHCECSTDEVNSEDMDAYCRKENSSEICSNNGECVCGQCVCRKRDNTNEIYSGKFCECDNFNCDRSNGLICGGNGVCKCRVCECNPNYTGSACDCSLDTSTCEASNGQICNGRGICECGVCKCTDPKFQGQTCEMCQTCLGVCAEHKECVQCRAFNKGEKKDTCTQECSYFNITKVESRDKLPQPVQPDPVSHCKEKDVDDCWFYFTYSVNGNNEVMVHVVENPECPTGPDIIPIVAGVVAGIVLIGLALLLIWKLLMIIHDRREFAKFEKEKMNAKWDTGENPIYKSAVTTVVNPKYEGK

[7] = molecular target: T1, α4β1 integrin; assay: Jurkat cell adhesion assay on VCAM-1-coated wells; format: cell-based
Procedure: To investigate the ability of the newly synthesized cyclopeptidomimetics 12–18 to recognize and bind α4β1 integrin, cell adhesion assays were performed on VCAM-1. The compounds were evaluated for their ability to interfere with α4β1 integrin-mediated cell adhesion by using Jurkat cells, which are known to constitutively express this integrin [46, 48, 49, 50, 51].
Jurkat E6.1 cells were purchased from American Type Culture Collection (ATCC, Rockville, MD, USA) and were routinely cultured in RPMI-1640 (LifeTechnologies, Milan, Italy) supplemented with 10% FBS (fetal bovine serum, Life Technologies) and 2 mM glutamine. Cells were kept at 37 °C under 5% CO2 humidified atmosphere. Jurkat cells are a widely used cell model to study potential agonist or antagonist ligands able to modulate integrin-mediated cell adhesion. Jurkat cells endogenously express α4β1 integrin [13].
The assays were performed as previously described. In brief, black 96 well plates were coated with VCAM-1 (2 μg/mL) overnight at 4 °C; then, non-specific hydrophobic binding sites were blocked with 1% BSA (bovine serum albumin, Sigma-Aldrich) in HBSS (Life Technologies) for 30 min at 37 °C. Jurkat cells were labelled with CellTracker green CMFDA (12.5 μM, Life Technolgies) and pre-incubated with various concentration (10^−4–10^−10 M) of each new cyclopeptidomimetic or with the vehicle (DMSO) for 30 min at 37 °C. Afterwards, Jurkat cells were plated on VCAM-1-coated wells and incubated for 30 min at 37 °C. Then, wells were washed three times with 1% BSA in HBSS and Jurkat cells were lysed with 0.5% Triton X-100 in PBS for 30 min at 4 °C. Green fluorescence (Ex485 nm/Em 535 nm) was measured in an EnSpire Multimode Plate Reader (PerkinElmer, Waltham, MA, USA). Experiments were performed in quadruplicate and repeated at least three times. The number of adherent cells was determined by comparison with a standard curve made with a known concentration of labelled Jurkat cells. Data analysis and IC50/EC50 values were calculated using GraphPad Prism 6.0 (GraphPad Software, San Diego, CA, USA).
as §1

[8] = system: human α4β1 integrin; set-up: method as in PMID 30051467; settings: cited from earlier work
[9] = system: α4 integrin; set-up: method as in PMID 30051467; settings: cited from earlier work
[10] = system: allergic conjunctivitis; set-up: method as in PMID 30051467; settings: cited from earlier work
[11] = molecular target: α4β1 receptor; set-up: method as in PMID 16767086; settings: Jurkat cell assay; read-out: IC50, affinity toward α4β1 receptor; cited from earlier work
[12] = system: α4β1–positive cells; set-up: method as in PMID 16767086; settings: cited from earlier work
[13] = system: endothelial progenitor cells; set-up: method as in PMID 23703610; settings: α4β1-dependent; cited from earlier work

For `Cc1ccccc1NC(=O)Nc1ccc(CC(=O)N[C@@H](CC(C)C)C(=O)N[C@@H](CC(=O)O)C(=O)N[C@H](C(=O)N2CCC[C@H]2C(=O)O)C(C)C)cc1` [BIO1211, MPUPA-Leu-Asp-Val-Pro] ({NH(2-Me-phenyl)-CO}-[X1]LDVP-OH), the “Effect of BIO1211 on cell adhesion induced by coated compound 16” value ([1]; BIO1211 10 nM–100 mM, wells coated with compound 16 10 μg/mL) is given as “not able to reduce the increment of cell adhesion induced by compound 16”, the IC50 [2] is given as 4 nM and the IC50 [3] is given as 2000 nM. For the same compound, the “Efficacy in sheep model of allergic bronchoconstriction” value [4] was “prophylactic efficacy” and the Enzymatic stability [5] was “a certain enzymatic instability”.
For `Cc1ccccc1NC(=O)Nc1ccc(CNC(=O)C2=CCN(C(=O)CC(=O)O)[C@@H]2C(C)C)cc1` [Compound 11a], the “IC50, inhibition of α4β1/VCAM interaction” value [6] is given as “in the nanomolar range” and the Enzymatic stability [5] is given as “superior enzymatic stability respect to cyclic peptides 8–10”.
For `Cc1ccccc1NC(=O)Nc1ccc(CNC(=O)C2=CCN(C(=O)CC(=O)O)[C@H]2C(C)C)cc1` [Compound 11b], the “Inhibitory potency towards α4β1 integrin” value [6] is listed as “considerably less active”.
With `Cc1ccccc1NC(=O)Nc1ccc(CC(=O)N2CC3CC2C(=O)NC(C(C)C)C(=O)NC(CC(=O)O)C(=O)NC(CC(C)C)C(=O)N3)cc1` (stereo not drawn) [Compound 16, c[(MPUPA)Amp-Val-Asp-Leu]] ({NH(2-Me-phenyl)-CO}-[X1][ξPro(4ξ-NH2)]VDL; lactam 2-C; configuration not given here) the “Behaviour in α4β1 integrin-mediated cell adhesion (agonist/antagonist)” value ([7]; Jurkat cell adhesion to VCAM-1 (2 μg/mL)) was “agonist”, the EC50 ([7]; Jurkat cell adhesion to VCAM-1 (2 μg/mL), means ± SD, n = 3, read-out: EC50/IC50 (EC50 for compounds enhancing cell adhesion)) was 370 ± 90 nM and the “Effect of compound 16 on the reduced cell adhesion induced by BIO1211” value ([7]; cells pre-incubated with BIO1211 (1 μM) 30 min, then compound 16 (100 μM)) was “not able to modify the reduction in adhesion induced by BIO1211; also recorded: not able to modify the reduced cell adhesion induced by BIO1211”. The “Effect on Jurkat cell adhesion to VCAM-1” value ([7]; compound 16 100 μM) was “increasing the adhesion of Jurkat cells to VCAM-1” and the “Jurkat cell adhesion to compound-coated wells” value ([1]; wells coated with 10 μg/mL, absence of VCAM-1, vs BSA-coated wells) was “able to induce Jurkat cell adhesion; also recorded: significant adhesion of Jurkat cells”.
For `Cc1ccccc1NC(=O)Nc1ccc(CC(=O)N2CC[C@H](C(=O)NCC(=O)O)C2)cc1` [DS-70], the “Binding affinity for human α4β1 integrin” value [8] is given as “high binding affinity”, the “Antagonist activity of α4–mediated cell adhesion” value [9] is given as “potent antagonist activity” and the “Outcome in guinea pig model of allergic conjunctivitis” value [10] is given as “successfully tested”.
For `Cc1ccccc1NC(=O)Nc1ccc(CC(=O)N[C@@H](CCCCNC(=O)/C=C/c2cccnc2)C(=O)N[C@@H](CCCC(=O)O)C(=O)NC2(C(N)=O)CCCCC2)cc1` [LLP2A], the IC50 [11] is given as 0.002 nM and the “Effect on cell proliferation and survival of α4β1–positive cells” value [12] is given as “without any effect”.
In the case of `CCCC[C@@H](COC(=O)N(Cc1cccs1)Cc1cccs1)NC(=O)N[C@@H](CC(=O)OC)c1ccc2c(c1)OCO2` [THI0019], the “Effect on endothelial progenitor cells in vitro” value [13] is listed as “enhanced the rolling, spreading, adhesion, and migration”.
